Results on five molecules are retold here after patent publication US20260184663A1, “INDENE COMPOUNDS, PHARMACEUTICAL COMPOSITIONS THEREOF, AND THEIR THERAPEUTIC APPLICATIONS” (NucMito Pharmaceuticals co. Ltd., priority 2022, published 2026).

Like-named read-outs stand apart in the source and are kept apart here. Where only a bound is given, the exact number is not on record here.

Holding throughout (type): cell-based
Assay [1] deals with MDA-MB-231 (breast cancer). Kind of assay: Antiproliferative activity (CCK-8 cell viability), MDA-MB-231. To be noted: Homo sapiens, 72 h, read-out: Antiproliferative activity in cancerous cells, MDA-MB-231 (inhibition of cell growth); for inhibition at 3.3 µM: Compound concentration: 3.3 μM; for inhibition at 10 µM: Compound concentration: 10 μM. Put shortly:
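Growth inhibition of human MDA-MB-231 breast cancer cells was assessed with a Cell Counting Kit-8. Cells cultured in DMEM plus 10% FBS were seeded at 2,000-5,000 cells/well, treated after attachment, and kept 72 h at 37° C. CCK-8 solution (10 μL) was added for 4 h, and absorbance at 450 nm was compared with DMSO-treated controls.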

Assay [2] concerns alpha-smooth muscle actin (α-SMA). Kind of assay: Inhibition of TGF-β induced expression of alpha-smooth muscle actin (α-SMA) in CFSC cells (western blot). To be noted: compound at 10 μM, TGF-β (10 ng/mL), 24 hours, band intensity vs TGF-β only. On the procedure:
The ability of a compound to inhabit the TGF-β induced expression of alpha-smooth muscle actin (α-SMA) was evaluated in CCl4-treated fat storing (CFSC) cells. α-SMA is considered as a reliable marker of hepatic stellate cell activation and a key biomarker for liver fibrosis.
CFSC cells maintained in a DMEM medium supplemented with 10% fetal bovine serum were seeded to 12-well culture dishes and grown to a confluence of 60-70% the next day. Culture was changed to a serum-free DMEM medium, and the cells were treated with a compound at 10 μM in the presence of TGF-β (10 ng/mL). The cells were incubated for another 24 hours. All culture was maintained at 37° C. in 5% carbon dioxide.
An NP-40 lysate solution (50 mM Tris (pH 7.4), 150 mM NaCl, 1% NP-40) with EDTA free cocktail added was used to lyse the cells on ice for 30 min. The lysate was collected and centrifuged at 4° C. for 10 min at 12,000 rpm. The pellet was discarded and the supernatant was transferred to a new tube. Cell lysates were loaded with 5× loading buffer and boiled for 10 min, resolved by 10% SDS-polyacrylamide gel electrophoresis (SDS-PAGE), and transferred to PVDF membrane. The membrane was blocked with 5% skim milk in Tris-buffered saline and TWEEN® 20 (TBST; 10 mM Tris-HCl (pH 8.0), 150 mM NaCl, 0.1% TWEEN® 20) for 1 h at room temperature and then incubated with α-SMA and β-actin antibodies overnight at 4° C. After washing twice with TBST, the membrane was probed with a horseradish […] anti-immunoglobulin (1:5000 dilution) for 1 h at room temperature. After two subsequent rinses in TBST, immunoreactive products were reacted with ECL and visualized by a UVP CHEMSTUDIO™ imaging system. The western blotting bands are quantitated using an ImageJ software. The percentage of inhibition was obtained by calculating the percentage decrease in the band intensity compared to the one treated with TGF-β only.
The results are summarized in Table 1, where A represents a value no less of 80% inhibition, B represents a value less than […] but no less than […], C represents a value less than 50% but no less than 30% inhibition, and D represents a value less than 30% inhibition with a compound at 10 μM.

Assay [3] relates to SW480 (colon cancer). Kind of assay: Antiproliferative activity (CCK-8 cell viability), SW480. To be noted: Homo sapiens, 72 h, read-out: Antiproliferative activity in cancerous cells, SW480 (inhibition of cell growth); for inhibition at 3.3 µM: Compound concentration: 3.3 μM; for inhibition at 10 µM: Compound concentration: 10 μM. Put shortly:
(§1)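 Growth inhibition graded in bands from percent viability against DMSO vehicle, read as CCK-8 absorbance at 450 nm. Compound tested at 3.3, 10 or 30 μM for 72 h, 37 °C; media contained 10% FBS: DMEM for HepG2/SW480, MEM for HeLa, F-12K for A549.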

For assay [4], the system named is HeLa (cervical cancer). The assay is described as follows: Antiproliferative activity (CCK-8 cell viability), HeLa. To be noted: Homo sapiens, 72 h; for inhibition at 3.3 µM: Compound concentration: 3.3 μM; for inhibition at 10 µM: Compound concentration: 10 μM; for inhibition at 30 µM: Compound concentration: 30 μM. Put shortly:
as §1

Assay [5] has as its system B16F10 (malignant melanoma). Kind of assay: Antiproliferative activity (CCK-8 cell viability), B16F10. To be noted: Mus musculus, 72 h, read-out: Antiproliferative activity in cancerous cells, B16F10 (inhibition of cell growth); for inhibition at 3.3 µM: B16-F10, Compound concentration: 3.3 μM; for inhibition at 10 µM: B16-F10, Compound concentration: 10 μM. Put shortly:
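Cell growth inhibition was measured in B16F10 malignant melanoma cells with a Cell Counting Kit-8 viability assay. Cells were maintained in DMEM plus 10% fetal bovine serum, seeded at 2,000-5,000 cells/well in 96-well plates, and treated for 72 h at 37° C. Viability was expressed relative to DMSO-treated vehicle control wells.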

Assay [6] has as its system HepG2 (liver cancer). Kind of assay: Antiproliferative activity (CCK-8 cell viability), HepG2. To be noted: Homo sapiens, 72 h, read-out: Antiproliferative activity in cancerous cells, HepG2 (inhibition of cell growth); for inhibition at 3.3 µM: Compound concentration: 3.3 μM; for inhibition at 10 µM: Compound concentration: 10 μM. Put shortly:
as §1

Assay [7] relates to A549 (lung adenocarcinoma). The assay is described as follows: Antiproliferative activity (CCK-8 cell viability), A549. To be noted: Homo sapiens, 72 h, read-out: Antiproliferative activity in cancerous cells, A549 (inhibition of cell growth); for inhibition at 3.3 µM: Compound concentration: 3.3 μM; for inhibition at 10 µM: Compound concentration: 10 μM. In short, it runs like this: as §1

Assay [8] has as its system A431 (epidermoid carcinoma). The assay is described as follows: Antiproliferative activity (CCK-8 cell viability), A431. To be noted: Homo sapiens, 72 h, read-out: Antiproliferative activity in cancerous cells, A431 (inhibition of cell growth); for inhibition at 3.3 µM: A-431, Compound concentration: 3.3 μM; for inhibition at 10 µM: A-431, Compound concentration: 10 μM. Put shortly: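 This growth inhibition assay used A431 cells maintained in Dulbecco's modified Eagle's medium plus 10% fetal bovine serum. Cells were seeded in 96-well plates, treated with compound for 72 h at 37° C., and then given 10 μL CCK-8 solution. After a further 4 h, absorbance was read at 450 nm.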

Where [9] appears, read: read-out: Antiproliferative activity in cancerous cells, HELA (inhibition of cell growth).

With `CCc1ccc(/C=C2/C(Cc3ccc(Oc4ccc(F)cc4)cc3)=C(CC(=O)O)c3cc(F)ccc32)cc1` [A104, (Z)-2-(1-(4-Ethylbenzylidene)-5-fluoro-2-(4-(4-fluorophenoxy)benzyl)-1H-inden-3-yl)acetic acid], the inhibition at 3.3 µM in assay [1], in assay [3], in assay [4] (setting [9]), in assay [5], in assay [6] and in assay [7] was at least 50% throughout. In addition, the inhibition at 3.3 µM in assay [8] is at least 50%. Also, the inhibition at 10 µM in assay [1] was at least 50%; in assay [2] it was over 80%; in assay [3], at least 50%; in assay [4] (setting [9]) it was at least 50%; in assay [5] it was at least 50%; in assay [6] it was at least 50%. Further, the inhibition at 10 µM in assay [7] and in assay [8] was at least 50% each time.
Regarding `CC1=C(CC(=O)O)c2cc(F)cc(F)c2/C1=C/c1ccc(COc2ccccc2)cc1` [E2, (E)-2-(5,7-Difluoro-2-methyl-1-(4-(phenoxymethyl)benzylidene)-1H-inden-3-yl)-acetic acid], the inhibition at 3.3 µM in assay [1] was under 30%; in assay [3] it was at least 50%; in assay [4] (setting [9]) it was at least 50%; in assay [5], at least 50%; in assay [6], 30 to 50%; in assay [7] it was under 30%. In assay [8], the inhibition at 3.3 µM lay in the range of 30 to 50%. In addition, the inhibition at 10 µM in assay [1] is at least 50%; in assay [2], 50 to 80%; in assay [3], at least 50%; in assay [4] (setting [9]), at least 50%; in assay [5], at least 50%; in assay [6], at least 50%. For the same molecule, the values for the inhibition at 10 µM in assay [7] and in assay [8] were 30 to 50% and at least 50%, respectively. In addition, the inhibition at 30 µM in assay [1] (Compound concentration: 30 μM) was at least 50%; in assay [3] (Compound concentration: 30 μM), at least 50%; in assay [4] (setting [9]), at least 50%; in assay [5] (B16-F10, Compound concentration: 30 μM) it was at least 50%; in assay [6] (Compound concentration: 30 μM), at least 50%; in assay [7] (Compound concentration: 30 μM) it was at least 50%. In addition, the inhibition at 30 µM in assay [8] (A-431, Compound concentration: 30 μM) is at least 50%.
Turning to `CC1=C(CC(=O)O)c2ccc(F)c(F)c2/C1=C\c1cccc(Oc2ccccc2)c1` [C23, (Z)-2-(6,7-Difluoro-2-methyl-1-(3-phenoxybenzylidene)-1H-inden-3-yl)acetic acid], the inhibition at 3.3 µM in assay [1] was at least 50%; in assay [3] it was under 30%; in assay [4] (setting [9]), 30 to 50%; in assay [5] it was 30 to 50%; in assay [6] it was under 30%; in assay [7] it was under 30%. Besides, in assay [8], the inhibition at 3.3 µM is under 30%. Besides, the inhibition at 10 µM in assay [1] was at least 50%; in assay [2], under 30%; in assay [3], under 30%; in assay [4] (setting [9]), at least 50%; in assay [5], at least 50%; in assay [6], under 30%. For the same molecule, the inhibition at 10 µM in assay [7] and in assay [8] was under 30% throughout.
Turning to `CCCC1=C(CC(=O)O)c2cc(F)ccc2/C1=C\c1cccc(COc2ccccc2)c1` [A7, (Z)-2-(5-Fluoro-1-(3-(phenoxymethyl)benzylidene)-2-propyl-1H-inden-3-yl)-acetic acid], the inhibition at 3.3 µM in assay [1] was at least 50%; in assay [3], under 30%; in assay [4] (setting [9]), under 30%; in assay [5] it was 30 to 50%; in assay [6] it was at least 50%; in assay [7] it was 30 to 50%. In assay [8], the inhibition at 3.3 µM was under 30%. The inhibition at 10 µM is at least 50% in assay [1]; over 80% in assay [2]; at least 50% in assay [3]; at least 50% in assay [4] (setting [9]); at least 50% in assay [5]; under 30% in assay [6]. Further, the inhibition at 10 µM in assay [7] and in assay [8] was at least 50% in each case.
For the molecule `CC1=C(CC(=O)O)c2cc(F)ccc2/C1=C\c1ccc(COc2ccc(C(F)(F)F)cc2)cc1` [B2, (Z)-2-(5-Fluoro-2-methyl-1-(4-((4-(trifluoromethyl)phenoxy)methyl)-benzylidene)-1H-inden-3-yl)acetic acid], the inhibition at 3.3 µM in assay [1] was 30 to 50%; in assay [3], at least 50%; in assay [4] (setting [9]), under 30%; in assay [5] it was at least 50%; in assay [6], 30 to 50%; in assay [7] it was at least 50%. In addition, in assay [8], the inhibition at 3.3 µM lay in the range of 30 to 50%. The inhibition at 10 µM is at least 50% in assay [1]; over 80% in assay [2]; at least 50% in assay [3]; under 30% in assay [4] (setting [9]); at least 50% in assay [5]; at least 50% in assay [6]. In addition, the inhibition at 10 µM in assay [7] and in assay [8] was at least 50% in each case. The inhibition at 30 µM in assay [4] (read-out: Antiproliferative activity in cancerous cells, HELA) was 30 to 50%.
